In PubChem BioAssay AID330 (DTP/NCI, 2004) one finds T/C data, which are given here for 23 molecules.

Where “and” joins values, the source holds several entries; their conditions need not be identical. Identical values can stand only once. Inconclusive results and toxic doses are left out.

In the experiment the test system is P388 leukemia ip, CD2F1 mice, survival T/C. Kind of experiment: NCI In Vivo Anticancer Drug Screen. Data for tumor model P388 Leukemia (intraperitoneal) in CD2F1 (CDF1) mice. As to conditions: endpoint: median survival time, higher = longer survival. An outline of the steps: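 Mice carrying the transplanted tumor received test compound or vehicle. Survival was recorded in each group, and the value is the treated-group measurement divided by that of the vehicle-treated control group.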

Where [1] appears, read: dose: 50.0 mg/kg/injection, schedule: Q01DX005 (ip), vehicle: Klucel (hydroxypropylcellulose) (HPC).
Setting [2] is: dose: 100.0 mg/kg/injection, schedule: Q01DX005 (ip), vehicle: Klucel (hydroxypropylcellulose) (HPC).
Setting [3] is: dose: 200.0 mg/kg/injection, schedule: Q01DX005 (ip), vehicle: Klucel (hydroxypropylcellulose) (HPC).
Setting [4] is: dose: 25.0 mg/kg/injection, schedule: Q01DX009 (ip), vehicle: saline.
Setting [5] is: dose: 50.0 mg/kg/injection, schedule: Q01DX009 (ip), vehicle: saline.
Setting [6] is: dose: 100.0 mg/kg/injection, schedule: Q01DX009 (ip), vehicle: saline.
The mark [7] stands for this setting: dose: 6.25 mg/kg/injection, schedule: Q01DX009 (ip), vehicle: saline.
The mark [8] stands for this setting: dose: 50.0 mg/kg/injection, schedule: Q04DX003 (ip), vehicle: saline with Tween-80.
Setting [9] is: dose: 100.0 mg/kg/injection, schedule: Q04DX003 (ip), vehicle: saline with Tween-80.
[10] abbreviates: dose: 12.5 mg/kg/injection, schedule: Q01DX005 (ip), vehicle: saline with Tween-80.
Setting [11] is: dose: 25.0 mg/kg/injection, schedule: Q01DX005 (ip), vehicle: saline with Tween-80.
The mark [12] stands for this setting: dose: 50.0 mg/kg/injection, schedule: Q01DX005 (ip), vehicle: saline with Tween-80.
The mark [13] stands for this setting: dose: 100.0 mg/kg/injection, schedule: Q01DX005 (ip), vehicle: saline with Tween-80.
Where [14] appears, read: dose: 12.5 mg/kg/injection, schedule: Q01DX009 (ip), vehicle: saline with Tween-80.
Setting [15] is: dose: 25.0 mg/kg/injection, schedule: Q01DX009 (ip), vehicle: saline with Tween-80.
Where [16] appears, read: dose: 50.0 mg/kg/injection, schedule: Q01DX009 (ip), vehicle: saline with Tween-80.
Where [17] appears, read: dose: 100.0 mg/kg/injection, schedule: Q01DX009 (ip), vehicle: saline with Tween-80.
Where [18] appears, read: dose: 200.0 mg/kg/injection, schedule: Q01DX009 (ip), vehicle: saline with Tween-80.

Consider `CCOC(=O)c1ccc(NC(=O)Oc2ccc(C(=O)OC)cc2)cc1`, for which the T/C is 103 % of control (dose: 60.0 mg/kg/injection, schedule: Q01DX005 (ip), vehicle: saline with Tween-80); 100 % of control (dose: 120.0 mg/kg/injection, schedule: Q01DX005 (ip), vehicle: saline with Tween-80); 103 % of control (dose: 240.0 mg/kg/injection, schedule: Q01DX005 (ip), vehicle: saline with Tween-80).

On to `Clc1nc(SC2=NCCN2)c2[nH]cnc2n1`, for which the T/C (dose: 5.0 mg/kg/injection, schedule: Q01DX009 (ip), vehicle: saline with Tween-80) was 100 % of control and 92 % of control; the T/C (dose: 10.0 mg/kg/injection, schedule: Q01DX009 (ip), vehicle: saline with Tween-80) is 104 % of control and 113 % of control; the T/C (dose: 20.0 mg/kg/injection, schedule: Q01DX009 (ip), vehicle: saline with Tween-80) is 105 % of control; the T/C (dose: 40.0 mg/kg/injection, schedule: Q01DX009 (ip), vehicle: saline with Tween-80) is 100 % of control.

In the case of `COc1ccc2c(C)cc(N/N=C\c3ccnc4ccccc34)nc2c1`, the T/C by setting is: under setting [1], 91 % of control; under setting [2], 92 % of control; under setting [3], 90 % of control.

For the molecule `N=C(N)COCc1ccccc1`, the T/C runs as follows: under setting [4], 116 % of control; under setting [5], 120 % of control; under setting [6], 111 % of control.

For the molecule `O=C1NS(=O)(=O)Oc2ccccc2O1`, the T/C reads like this: under setting [1], 107 % of control; under setting [2], 100 % of control; under setting [3], 95 % of control.

As to `CCOc1c(N=Nc2cccc(Cl)c2)c(C)nn1C(=S)S`, the T/C is 94 % of control (dose: 15.0 mg/kg/injection, schedule: Q01DX005 (ip), vehicle: Klucel + Tween-80) and 90 % of control (dose: 30.0 mg/kg/injection, schedule: Q01DX005 (ip), vehicle: Klucel + Tween-80).

As for `CCOc1cc(=O)cc2n(-c3cc(OCC)c(O)c(OCC)c3)c3ccccc3nc1-2`, the T/C is 100 % of control (dose: 50.0 mg/kg/injection, schedule: Q01DX009 (ip), vehicle: suspension in saline); 101 % of control (dose: 100.0 mg/kg/injection, schedule: Q01DX009 (ip), vehicle: suspension in saline); 97 % of control (dose: 200.0 mg/kg/injection, schedule: Q01DX009 (ip), vehicle: suspension in saline).

On to `Cc1csc2c3ccccc3cc(=O)n12`, for which the T/C was 95 % of control (dose: 12.5 mg/kg/injection, schedule: Q01DX005 (ip), vehicle: Klucel (hydroxypropylcellulose) (HPC)); 99 % of control (dose: 25.0 mg/kg/injection, schedule: Q01DX005 (ip), vehicle: Klucel (hydroxypropylcellulose) (HPC)); 100 % of control under setting [1]; 98 % of control (dose: 100.0 mg/kg/injection, schedule: Q01DX001 (ip), vehicle: Klucel (hydroxypropylcellulose) (HPC)).

As for `CNC(=O)Oc1cccc(N=CN(C)C)c1`, the T/C by setting is: (dose: 0.93 mg/kg/injection, schedule: Q01DX005 (ip), vehicle: saline) 97 % of control; (dose: 1.87 mg/kg/injection, schedule: Q01DX005 (ip), vehicle: saline) 101 % of control; (dose: 3.75 mg/kg/injection, schedule: Q01DX005 (ip), vehicle: saline) 95 % of control.

As for `O=NNc1ccc(-c2ccccc2)cn1`, the T/C runs as follows: under setting [7], 101 % of control; under setting [4], 181 % of control; under setting [5], 108 % of control.

For `[C-]#[N+]C1CCCCC1.[C-]#[N+]C1CCCCC1.[Ni].[S-]c1ccccc1.[S-]c1ccccc1`, the T/C was 89 % of control (dose: 25.0 mg/kg/injection, schedule: Q04DX003 (ip), vehicle: saline with Tween-80); 91 % of control under setting [8]; 89 % of control and 93 % of control under setting [9].

For the molecule `CCN1CCC(=O)C1`, the T/C reads like this: under setting [8], 104 % of control; under setting [9], 105 % of control; (dose: 200.0 mg/kg/injection, schedule: Q04DX003 (ip), vehicle: saline with Tween-80) 105 % of control.

Consider `O=Cc1cc(CCl)ccc1O`, for which the T/C by setting is: under setting [10], 103 % of control; under setting [11], 110 % of control; under setting [12], 113 % of control; under setting [13], 98 % of control.

In the case of `CCSC(=O)/C=C\C=[N+](/[O-])OC`, the T/C (dose: 12.5 mg/kg/injection, schedule: Q01DX009 (ip), vehicle: other) was 103 % of control; the T/C (dose: 25.0 mg/kg/injection, schedule: Q01DX009 (ip), vehicle: other) is 104 % of control; the T/C (dose: 50.0 mg/kg/injection, schedule: Q01DX009 (ip), vehicle: other) was 112 % of control and 94 % of control; the T/C (dose: 100.0 mg/kg/injection, schedule: Q01DX009 (ip), vehicle: other) is 97 % of control.

For the molecule `CC(C)=CCC1=CC(=O)C(CC=C(C)C)=CC1=O`, the T/C is 105 % of control (dose: 3.12 mg/kg/injection, schedule: Q01DX009 (ip), vehicle: saline with Tween-80); 118 % of control (dose: 6.25 mg/kg/injection, schedule: Q01DX009 (ip), vehicle: saline with Tween-80); 100 % of control under setting [14]; 90 % of control and 96 % of control under setting [15].

Consider `Cc1nc2c(sc(=N)n2-c2ccccc2)c(=O)[nH]1`, for which the T/C reads like this: under setting [14], 115 % of control; under setting [15], 106 % of control; under setting [16], 103 % of control.

For the molecule `OCCN1CN(c2ccccc2)C(=S)N(c2ccccc2)C1`, the T/C is 97 % of control under setting [16], 100 % of control under setting [17] and 93 % of control under setting [18].

On to `COc1ccc([N+]2=Cc3cc(OC)c(OC)cc3CC2)cc1OC`, for which the T/C is 115 % of control (dose: 6.25 mg/kg/injection, schedule: Q01DX009 (ip), vehicle: water); 108 % of control (dose: 12.5 mg/kg/injection, schedule: Q01DX009 (ip), vehicle: water); 108 % of control (dose: 25.0 mg/kg/injection, schedule: Q01DX009 (ip), vehicle: water); 103 % of control and 108 % of control (dose: 50.0 mg/kg/injection, schedule: Q01DX009 (ip), vehicle: water); 104 % of control and 88 % of control (dose: 100.0 mg/kg/injection, schedule: Q01DX009 (ip), vehicle: water).

As for `COc1ccc2nc(N/N=C/c3cccc(C)n3)cc(C)c2c1`, the T/C under setting [10] is 100 % of control; the T/C under setting [11] is 96 % of control; the T/C under setting [12] was 94 % of control and 95 % of control; the T/C under setting [13] is 114 % of control; the T/C (dose: 200.0 mg/kg/injection, schedule: Q01DX005 (ip), vehicle: saline with Tween-80) was 116 % of control.

`Cc1ccc(S(=O)(=O)N2CCC2)cc1`: the T/C by setting is: under setting [17], 90 % of control; under setting [18], 95 % of control; (dose: 400.0 mg/kg/injection, schedule: Q01DX009 (ip), vehicle: saline with Tween-80) 100 % of control.

As to `N#CC1OC1c1ccc[n+]([O-])c1` (centres undefined), the T/C is, setting by setting: (dose: 1.56 mg/kg/injection, schedule: Q01DX005 (ip), vehicle: saline) 94 % of control; (dose: 3.12 mg/kg/injection, schedule: Q01DX005 (ip), vehicle: saline) 105 % of control; (dose: 6.25 mg/kg/injection, schedule: Q01DX005 (ip), vehicle: saline) 100 % of control; (dose: 12.5 mg/kg/injection, schedule: Q01DX005 (ip), vehicle: saline) 101 % of control.

As to `COCCCn1c(-c2ccc(Cl)cc2)nn2c(=O)c3ccccc3nc2c1=O`, the T/C is, setting by setting: under setting [5], 97 % of control; under setting [6], 92 % of control; (dose: 200.0 mg/kg/injection, schedule: Q01DX009 (ip), vehicle: saline) 92 % of control.

In the case of `ClC(Cl)c1nc2ccccc2[nH]1`, the T/C by setting is: under setting [7], 108 % of control; (dose: 12.5 mg/kg/injection, schedule: Q01DX009 (ip), vehicle: saline) 100 % of control; under setting [4], 108 % of control; under setting [5], 101 % of control.
